From ChEMBL document CHEMBL4622879, “Structural Revision of Garcinielliptin Oxide and Garcinielliptone E” (J Nat Prod, 2020)
Calls of active or inactive are those of the source. The calls are words filed in the database; no cut-off is given here.

Assays:
RAW264.7 = assay: Antiinflammatory activity in mouse RAW264.7 assessed as reduction in LPS-induced NO production; format: functional, cell-based
HCT-116 = assay: Cytotoxicity against human HCT116 cells at 40 uM after 1 to 11 days by tetrazolium reagent based assay; format: functional, cell-based
MDA-MB-231 = assay: Cytotoxicity against human MDA-MB-231 cells at 40 uM after 1 to 11 days by tetrazolium reagent based assay; format: functional, cell-based
A549 = assay: Cytotoxicity against human A549 cells at 40 uM after 1 to 11 days by tetrazolium reagent based assay; format: functional, cell-based
HepG2 = assay: Cytotoxicity against human HepG2 cells at 40 uM after 1 to 11 days by tetrazolium reagent based assay; format: functional, cell-based
K562 = assay: Cytotoxicity against human K562 cells at 40 uM after 1 to 11 days by tetrazolium reagent based assay; format: functional, cell-based
Acetylcholinesterase = Acetylcholinesterase (Homo sapiens, UniProt P22303); assay: Inhibition of human erythrocyte acetylcholinesterase using acetylthiocholine as substrate preincubated for 20 mins followed by substrate addition and measured after 30 mins by Ellman's method
Acetylcholinesterase, sequence (P22303 whole entry): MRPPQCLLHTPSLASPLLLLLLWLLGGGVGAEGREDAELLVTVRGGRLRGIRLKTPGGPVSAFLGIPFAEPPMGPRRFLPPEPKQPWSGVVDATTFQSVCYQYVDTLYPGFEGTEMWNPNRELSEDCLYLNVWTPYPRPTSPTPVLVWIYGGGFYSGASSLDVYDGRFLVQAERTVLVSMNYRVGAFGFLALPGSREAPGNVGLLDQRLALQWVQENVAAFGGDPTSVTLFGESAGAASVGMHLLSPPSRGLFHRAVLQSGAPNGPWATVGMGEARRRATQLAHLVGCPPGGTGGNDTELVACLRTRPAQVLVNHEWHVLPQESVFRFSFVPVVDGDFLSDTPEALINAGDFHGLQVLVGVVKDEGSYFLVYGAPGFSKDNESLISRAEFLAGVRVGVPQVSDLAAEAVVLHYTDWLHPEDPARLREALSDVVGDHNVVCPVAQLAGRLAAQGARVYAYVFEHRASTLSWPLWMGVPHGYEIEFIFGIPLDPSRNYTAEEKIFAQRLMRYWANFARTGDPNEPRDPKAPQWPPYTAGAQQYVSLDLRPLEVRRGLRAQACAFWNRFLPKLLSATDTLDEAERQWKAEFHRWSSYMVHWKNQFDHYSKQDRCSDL

Q: What does the source list for `CCC(C)C(=O)[C@]12C(=O)[C@]3(CC=C(C)C)OC1(O)[C@](CC=C(C)C)(C[C@H](CC=C(C)C)C2(C)C)C3=O` (stereo partly drawn)?
A: Activity (RAW264.7): inactive; Activity (HCT-116): inactive; Activity (MDA-MB-231): inactive; Activity (A549): inactive; Activity (HepG2): inactive; Activity (K562): inactive

Q: Which IC50 (Acetylcholinesterase) does the source give for `CC(C)=CC[C@H]1C[C@]2(CC=C(C)C)C(=O)[C@]3(CC=C(C)C)O[C@@]1(C(=O)C(C)C)[C@@]2(O)C(C)(C)C3=O` here?
A: 20.7 µM

Q: And the Activity (RAW264.7)?
A: inactive

Q: What about the Activity (HCT-116) of the same compound?
A: inactive

Q: What about the Activity (MDA-MB-231) of the same compound?
A: inactive

Q: What about the Activity (A549) of the same compound?
A: inactive

Q: What about the Activity (HepG2) of the same compound?
A: inactive

Q: What about the Activity (K562) of the same compound?
A: inactive
